Experimental data published in paper PMC12396409, “Screening and hit evaluation of a microbial metabolite library against the pathogenic Plasmodium falciparum and Toxoplasma gondii parasites” (International Journal for Parasitology: Drugs and Drug …, 2025).
Like-named read-outs stand apart in the source and are kept apart here.

Legend:
[1] = system: P. falciparum 3D7 parasites; assay: P. falciparum growth inhibition assay, 2-cycle (120 h treatment), delayed-death screen and dose-response; type: cell-based, Plasmodium falciparum; details: for IC50: 3D7, read-out: IC50, P. falciparum, 120 h dose-response (delayed-death)
Leishmania = details: ref Filho et al., 2024; cited from earlier work
[2] = system: T. gondii RH strain (RH-Tub-eYFP) tachyzoites; assay: microbe, parasite or virus in culture; type: cell-based, Toxoplasma gondii
[3] = system: P. falciparum 3D7 parasites; assay: P. falciparum growth inhibition assay, 1-cycle (72 h treatment), SYBR DNA staining (library screen at 2 μg/mL and dose-response); type: cell-based, Plasmodium falciparum; details: for activity in the screen against P. falciparum: 2 μg/mL, active = ≥80 % growth inhibition; for Screen (P. falciparum): 3D7, 72 h, DD from the 120 h timepoint
P. falciparum = details: cited from earlier work
[4] = system: human neonatal foreskin fibroblast (NFF); assay: Cytotoxicity screen at 5 μg/mL, resazurin dye assay, 96 h
[5] = library screen at 2 μg/mL, 72 h, % growth, replicate 1
[6] = library screen at 2 μg/mL, 72 h, % growth, replicate 2
[7] = Plasmodium falciparum, 3D7, P. falciparum, 120 h, parasite screen 2 μg/mL, % growth, replicate 1, read-out: Pf_120h_%Growth_Rep1
[8] = Plasmodium falciparum, 3D7, P. falciparum, 120 h, parasite screen 2 μg/mL, % growth, replicate 2, read-out: Pf_120h_%Growth_Rep2
[9] = 2 μg/mL, 72 h, active = ≥80 % growth inhibition
[10] = Toxoplasma gondii, 72 h, T. gondii, 72 h, parasite screen 2 μg/mL, % growth, replicate 1; read-out: Tg_72h_%Growth_Rep1
[11] = Toxoplasma gondii, 72 h, T. gondii, 72 h, parasite screen 2 μg/mL, % growth, replicate 2; read-out: Tg_72h_%Growth_Rep2
[12] = Toxoplasma gondii; RH strain, 72 h, mean ± S.D., n ≥ 3; read-out: IC50 (μM), T. gondii (converted)
[13] = Plasmodium falciparum, 3D7, P. falciparum, 72 h, parasite screen 2 μg/mL, % growth, replicate 1, read-out: Pf_72h_%Growth_Rep1
[14] = Plasmodium falciparum, 3D7, P. falciparum, 72 h, parasite screen 2 μg/mL, % growth, replicate 2, read-out: Pf_72h_%Growth_Rep2
[15] = Plasmodium falciparum, 3D7, 72 h treatment, mean ± S.D., n ≥ 3, read-out: IC50 (μM), P. falciparum
[16] = Plasmodium falciparum, 3D7; P. falciparum, 2 μg/mL, 120 h; read-out: 2) Growth (%) at 120 h
[17] = Plasmodium falciparum, 3D7; P. falciparum, 2 μg/mL, 72 h; read-out: 1) Growth (%) at 72 h
[18] = fibroblasts over T. gondii, for cryptopleurine the parasite is not stated
[19] = P. falciparum, growth at 72 h / growth at 120 h, 2 μg/mL
[20] = Plasmodium falciparum, 3D7, P. falciparum, 120 h, screen at 2 μg/mL, replicate 1, read-out: Pf_120h_%Growth_Rep1
[21] = Plasmodium falciparum, 3D7, P. falciparum, 120 h, screen at 2 μg/mL, replicate 2, read-out: Pf_120h_%Growth_Rep2
[22] = Plasmodium falciparum, 3D7, P. falciparum, 72 h, screen at 2 μg/mL, replicate 1, read-out: Pf_72h_%Growth_Rep1
[23] = Plasmodium falciparum, 3D7, P. falciparum, 72 h, screen at 2 μg/mL, replicate 2, read-out: Pf_72h_%Growth_Rep2
[24] = 48–72 h, ref Wilson et al., 2013, read-out: IC50 at 48–72 h
[25] = Plasmodium falciparum, 3D7, library screen at 2 μg/mL, 120 h, % growth, replicate 1, read-out: Pf_120h_%Growth_Rep1
[26] = Plasmodium falciparum, 3D7, library screen at 2 μg/mL, 120 h, % growth, replicate 2, read-out: Pf_120h_%Growth_Rep2
[27] = Toxoplasma gondii, 72 h, library screen at 2 μg/mL, 72 h, % growth, replicate 1; read-out: Tg_72h_%Growth_Rep1
[28] = Toxoplasma gondii, 72 h, library screen at 2 μg/mL, 72 h, % growth, replicate 2; read-out: Tg_72h_%Growth_Rep2
[29] = Plasmodium falciparum, 3D7, library screen at 2 μg/mL, 72 h, % growth, replicate 1, read-out: Pf_72h_%Growth_Rep1
[30] = Plasmodium falciparum, 3D7, library screen at 2 μg/mL, 72 h, % growth, replicate 2, read-out: Pf_72h_%Growth_Rep2

In the case of Beauvericin, the Pf_120h_%Growth_Rep1 ([1]; library screen at 2 μg/mL, 120 h, % growth, replicate 1) is given as 4.73%, the Pf_120h_%Growth_Rep2 ([1]; library screen at 2 μg/mL, 120 h, % growth, replicate 2) is given as 5.37% and the “reported activity in Leishmania” value (Leishmania) is given as “around 1 μM”. For the same compound, the Tg_72h_%Growth_Rep1 [2, 5] was 86.72%, the Tg_72h_%Growth_Rep2 [2, 6] was 89.12% and the IC50 ([3]; 3D7, 72 h treatment, mean ± S.D., n ≥ 3, read-out: IC50 (μM), P. falciparum) was 0.499 ± 0.029 µM. The IC50 ([3]; 72 h treatment, read-out: IC50, P. falciparum) was 0.5 µM, the Pf_72h_%Growth_Rep1 [3, 5] was 7.31% and the Pf_72h_%Growth_Rep2 [3, 6] was 5.24%.

For C=C[C@]1(C)C[C@@H](OC(=O)CS[C@@H]2C[C@H]3CC[C@@H](C2)N3C)[C@]2(C)[C@H](C)CC[C@]3(CCC(=O)[C@H]32)[C@@H](C)[C@@H]1O [Retapamulin, reference compound], the IC50 ([1]; Plasmodium falciparum) was 106 nM, the activity at 2 µg/mL [1, 7] was -0.64% and the activity at 2 µg/mL [1, 8] was 3.58%. For the same compound, the selectivity index (HFF cells) was “greater than 100”, the “activity in the screen against T. gondii” value [2, 9] was “active against both P. falciparum and T. gondii” and the percent parasite growth at 2 µg/mL [2, 10] was 2.49%. The percent parasite growth at 2 µg/mL [2, 11] was 9.45%, the IC50 [2, 12] was 0.085 µM and the “Screen (T. gondii)” value ([2]; library screen at 2 μg/mL, RH strain, 72 h) was “A, A”. For the same compound, the “activity in the screen against P. falciparum” value ([3]; 72 h) was “active against both P. falciparum and T. gondii”, the activity at 2 µg/mL [3, 13] was 8.14% and the activity at 2 µg/mL [3, 14] was 8.89%. The IC50 [3, 15] was > 1 µM and the “Screen (P. falciparum)” value ([3]; library screen at 2 μg/mL) was “A, A”.

For CC[C@H]1OC(=O)[C@H](C)[C@@H](O[C@H]2C[C@@](C)(OC)[C@@H](O)[C@H](C)O2)[C@H](C)[C@@H](O[C@@H]2O[C@H](C)C[C@H](N(C)C)[C@H]2O)[C@](C)(O)C[C@@H](C)/C(=N\OCOCCOC)[C@H](C)[C@@H](O)[C@]1(C)O [Roxithromycin, reference compound], the IC50 (P. falciparum; 48 h, ref Min et al., 2007, read-out: IC50 at 48 h) is listed as ~4000 nM, the IC50 (P. falciparum; increased treatment duration, ref Min et al., 2007, read-out: IC50 with increased treatment duration) is listed as 1000 to 2000 nM and the “3) Fold change (72 h/120 h)” value [1] is listed as 3.6. It also gave an activity at 2 µg/mL [1, 16] of 8.49%, an activity at 2 µg/mL [1, 7] of 18.3% and an activity at 2 µg/mL [1, 8] of -1.36%. It also gave a percent parasite growth at 2 µg/mL [2, 10] of 33.7%, a percent parasite growth at 2 µg/mL [2, 11] of 33.3% and an activity at 2 µg/mL [3, 17] of 30.9%. The activity at 2 µg/mL [3, 13] was 34.6% and the activity at 2 µg/mL [3, 14] was 27.2%.

For Pladienolide B, the selectivity index (HFF cells; [18]) was 7, the IC50 (HFF cells; read-out: IC50, cytotoxicity against human fibroblasts, HFF, 72 h) was 47 nM and the “activity in the screen against T. gondii” value [2, 9] was “active against T. gondii but not P. falciparum”. For the same compound, the IC50 ([2]; 72 h; read-out: IC50, T. gondii) was 0.0067 ± 0.0044 µM and the “activity in the screen against P. falciparum” value ([3]; 72 h) was “active against T. gondii but not P. falciparum”.

For C=C[C@]1(C)C[C@@H](OC(=O)CSC(C)(C)CNC(=O)[C@H](N)C(C)C)[C@]2(C)[C@H](C)CC[C@]3(CCC(=O)[C@H]32)[C@@H](C)[C@@H]1O [Valnemulin, reference compound], the “delayed-death activity in the 120 h screen against P. falciparum” value ([1]; 2 μg/mL, criteria: ≥40 % growth at 72 h, ≤20 % growth at 120 h, at least 5-fold) was “meeting two of our three criteria for delayed-death activity”, the “3) Fold change (72 h/120 h)” value [1, 19] was 3.7 and the IC50 ([1]; Plasmodium falciparum) was 64 nM. It also gave an activity at 2 µg/mL [1, 16] of 13.4%, an activity at 2 µg/mL [1, 20] of 15% and an activity at 2 µg/mL [1, 21] of 11.8%. The selectivity index (HFF cells; [18]) was “greater than 100”, the “activity in the screen against T. gondii” value [2, 9] was “active against T. gondii” and the percent parasite growth at 2 µg/mL ([2]; Toxoplasma gondii, 72 h, T. gondii, 72 h, screen at 2 μg/mL, replicate 1; read-out: Tg_72h_%Growth_Rep1) was 13.1%. For the same compound, the percent parasite growth at 2 µg/mL ([2]; Toxoplasma gondii, 72 h, T. gondii, 72 h, screen at 2 μg/mL, replicate 2; read-out: Tg_72h_%Growth_Rep2) was 19.6%, the IC50 [2, 12] was 0.232 µM and the activity at 2 µg/mL [3, 17] was 50.1%. For the same compound, the activity at 2 µg/mL [3, 22] was 44.3%, the activity at 2 µg/mL [3, 23] was 55.9% and the IC50 [3, 15] was > 1 µM. For the same compound, the “Screen (P. falciparum)” value ([3]; library screen at 2 μg/mL) was “DD^”.

In the case of C=C(NC(=O)C(=C)NC(=O)c1csc(C2=N[C@@H]3c4csc(n4)[C@H]4NC(=O)c5csc(n5)[C@H]([C@](C)(O)[C@@H](C)O)NC(=O)[C@H]5CSC(=N5)/C(=C/C)NC(=O)[C@H]([C@@H](C)O)NC(=O)c5csc(n5)[C@]3(CC2)NC(=O)[C@H](C)NC(=O)C(=C)NC(=O)[C@H](C)NC(=O)[C@H]([C@@H](C)CC)N[C@@H]2C=Cc3c([C@H](C)O)cc(nc3[C@H]2O)C(=O)O[C@@H]4C)n1)C(N)=O [thiostrepton, reference compound], the IC50 (P. falciparum; ref Aminake et al., 2011, Schoof et al., 2010, read-out: IC50 in Plasmodium) is listed as ~10000 nM, the activity at 2 µg/mL [1, 20] is listed as 60.6% and the activity at 2 µg/mL [1, 21] is listed as 35.5%. For the same compound, the percent parasite growth at 2 µg/mL ([2]; Toxoplasma gondii; T. gondii, 72 h, screen at 2 μg/mL, replicate 1; read-out: Tg_72h_%Growth_Rep1) was 86.7%, the percent parasite growth at 2 µg/mL ([2]; Toxoplasma gondii; T. gondii, 72 h, screen at 2 μg/mL, replicate 2; read-out: Tg_72h_%Growth_Rep2) was 93.6% and the activity at 2 µg/mL [3, 22] was 56.7%. It also gave an activity at 2 µg/mL [3, 23] of 65.2%.

In the case of C[C@H]1c2cccc(O)c2C(=O)C2=C(O)[C@]3(O)C(=O)C(C(N)=O)=C(O)[C@@H](N(C)C)[C@@H]3[C@@H](O)[C@@H]21 [Doxycycline, reference compound], the IC50 (P. falciparum; [24]) is listed as ≥ 5000 nM, the “IC50 at more than 96 h” value (P. falciparum; ref Wilson et al., 2013) is listed as “low nanomolar range” and the “3) Fold change (72 h/120 h)” value [1] is listed as 6.3. The activity at 2 µg/mL [1, 16] was 7.68%, the activity at 2 µg/mL [1, 25] was 8.86% and the activity at 2 µg/mL [1, 26] was 6.5%. The percent parasite growth at 2 µg/mL [2, 27] was 41%, the percent parasite growth at 2 µg/mL [2, 28] was 47.5% and the activity at 2 µg/mL [3, 17] was 48.6%. It also gave an activity at 2 µg/mL [3, 29] of 55.3% and an activity at 2 µg/mL [3, 30] of 41.9%.

For CC(/C=C/C[C@@H](C)/C=C(C)/C=C/[C@@H]1OC(=O)C=C[C@@H]1C)=C\[C@@H](C)C(=O)[C@@H](C)[C@H](O)[C@@H](C)C/C(C)=C/C(=O)O [leptomycin A], the “cytotoxic activity in the screen against fibroblasts” value [4] was “cytotoxic activity”.

In the case of CC[C@H]1OC(=O)[C@H](C)[C@@H](O[C@H]2C[C@@](C)(OC)[C@@H](O)[C@H](C)O2)[C@H](C)[C@@H](O[C@@H]2O[C@H](C)C[C@H](N(C)C)[C@H]2O)[C@](C)(O)C[C@@H](C)CN(C)[C@H](C)[C@@H](O)[C@]1(C)O [Azithromycin, reference compound], the IC50 (P. falciparum; [24]) is given as ≥ 5000 nM, the “IC50 at more than 96 h” value (P. falciparum; ref Wilson et al., 2013) is given as “low nanomolar range” and the “3) Fold change (72 h/120 h)” value [1, 19] is given as 6.4. It also gave an activity at 2 µg/mL [1, 16] of 8.77%, an activity at 2 µg/mL [1, 25] of 17.2% and an activity at 2 µg/mL [1, 26] of 0.35%. For the same compound, the percent parasite growth at 2 µg/mL [2, 27] was 41.8%, the percent parasite growth at 2 µg/mL [2, 28] was 36% and the activity at 2 µg/mL [3, 17] was 56.2%. For the same compound, the activity at 2 µg/mL [3, 29] was 59.3% and the activity at 2 µg/mL [3, 30] was 53.1%.
